Here are results for 45 molecules from the supplement of paper PMC3974653.

The subject of this assay is MTT (mouse pheochromocytoma). Description: IC50 of cell viability (ATP content). The following applies: (24 or 48 h). In outline:
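Library compounds in DMSO (23 nl by pintool, 8 concentrations, final 0.5 nM to 46 µM) were applied for 24 or 48 hrs to MTT mouse pheochromocytoma cells that had been cultured overnight at 37°C, 5% CO2 in white 1536-well plates. Cell viability was measured by CellTiter-Glo ATP luminescence, read after 15 minutes, with positive-control wells set at 100% and DMSO wells at 0%. A four-parameter logistic fit of the normalised signals yielded the IC50.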

Structures can show the parent of a compound that is named as a salt.

With `C=C1NC(=O)c2cc(CN(C)c3ccc(C(=O)N[C@@H](CCC(=O)O)C(=O)O)s3)ccc2N1` [RALTITREXED], the “IC50 of cell viability” value is greater than 46 µM.
For the molecule `O=C(O)CCn1c2c(c3ccccc31)C[C@H](N[S+](=O)([O-])c1ccc(F)cc1)CC2` [RAMATROBAN], the “IC50 of cell viability” value is greater than 46 µM.
Regarding `CCC(=O)NCCC1CCc2ccc3c(c21)CCO3` (stereo not given) [RAMELTEON], the “IC50 of cell viability” value is greater than 46 µM.
Next, `Cl.CC(C)NC/1=C(C)/N(C)N(C1=O)C2=CC=CC=C2` [RAMIFENAZONE]: greater than 46 µM.
Regarding `Cn1cc(C(=O)[C@@H]2CCc3[nH]cnc3C2)c2ccccc21` [RAMOSETRON HYDROCHLORIDE], the “IC50 of cell viability” value is greater than 46 µM.
Turning to `CN/C(=C\[N+](=O)[O-])NCCSCc1ccc(CN(C)C)o1` [RANITIDINE], the “IC50 of cell viability” value is greater than 46 µM.
Consider `COc1ccccc1OCC(O)CN1CCN(CC(=O)Nc2c(C)cccc2C)CC1` (stereo not given) [RANOLAZINE], for which the “IC50 of cell viability” value was greater than 46 µM.
Regarding `C=CC[N+]1([C@H]2C[C@H]3[C@@H]4CC[C@H]5C[C@H](OC(C)=O)[C@@H](N6CCCCC6)C[C@]5(C)[C@H]4CC[C@]3(C)[C@H]2OC(=O)CC)CCCCC1` [RAPACURONIUM BROMIDE], the “IC50 of cell viability” value was greater than 46 µM.
As for `C#CCN[C@@H]1CCc2ccccc21` [RASAGILINE MESYLATE], the “IC50 of cell viability” value was greater than 46 µM.
Next, `COC(=O)[C@H]1[C@H]2C[C@H]3c4[nH]c5ccccc5c4CCN3C[C@H]2CC[C@@H]1O` [RAUWOLSCINE]: greater than 46 µM.
Regarding `OC(=O)C(CC/1=C/C(=O)NC2=CC=CC=C12)NC(=O)C3=CC=C(Cl)C=C3` (stereo not given) [REBAMIPIDE], the “IC50 of cell viability” value is greater than 46 µM.
Take `COc1ccc([S+](=O)([O-])N2c3ccc(Cl)cc3[C@](O)(c3ccccc3Cl)[C@@H]2C(=O)N2CCC[C@H]2C(N)=O)cc1OC` [RELCOVAPTANUM]: the “IC50 of cell viability” value is greater than 46 µM.
As for `CCN1CCC[C@H]1CNC(=O)c1c(OC)ccc(Br)c1OC` [REMOXIPRIDE], the “IC50 of cell viability” value is greater than 46 µM.
Turning to `CC(C)Cc1ccc([C@@H](C)C(=O)NS(C)(=O)=O)cc1.NCCCC[C@H](N)C(=O)O` [REPARIXIN], the “IC50 of cell viability” value is greater than 46 µM.
For the molecule `CC(=O)Oc1cccc(O)c1` [RESORCINOL MONOACETATE], the “IC50 of cell viability” value is greater than 46 µM.
Next, `NC(=O)c1ncn(C2OC(CO)C(O)C2O)n1` (stereo not given) [RIBAVIRIN]: greater than 46 µM; `COC1/C=C/O[C@@]2(C)Oc3c(C)c(O)c4c(O)c(c(C=NN5CCN(C)CC5)c(O)c4c3C2=O)NC(=O)C(C)=C/C=C/C(C)C(O)[C@@H](C)C(O)C(C)[C@H](OC(C)=O)C1C` (stereo not given in full) [RIFAMPIN]: greater than 46 µM.
The value for `CO[C@H]1/C=C/O[C@@]2(C)Oc3c(C)c(O)c4c(O)c(c(/C=N\N5CCN(C6CCCC6)CC5)c(O)c4c3C2=O)NC(=O)C(C)=C/C=C/[C@H](C)[C@H](O)[C@@H](C)[C@@H](O)[C@@H](C)[C@H](OC(C)=O)[C@@H]1C` [RIFAPENTINE] was greater than 46 µM; that for `C1C\N=C(\NC(C2CC2)C3CC3)O1` [RILMENIDINE] was greater than 46 µM; that for `CC/1=C(\CCN2CCC(CC2)C3=NOC4=C3C=CC(=C4)F)C(=O)N/5CCCCC5=N1` [RISPERIDONE] was greater than 46 µM.
`CCN(C)C(=O)Oc1cccc([C@H](C)N(C)C)c1` [RIVASTIGMINE TARTRATE]: the “IC50 of cell viability” value was greater than 46 µM.
Regarding `CN(C)CCc1c[nH]c2ccc(Cn3cncn3)cc12` [RIZATRIPTAN], the “IC50 of cell viability” value was greater than 46 µM.
The value for `N=C(N/N=C/c1ccc(Cl)cc1)N/N=C/c1ccc(Cl)cc1` [ROBENIDINE HYDROCHLORIDE] was greater than 46 µM; that for `C=CC[N+]1([C@H]2C[C@H]3[C@@H]4CC[C@H]5C[C@H](O)[C@@H](N6CCOCC6)C[C@]5(C)[C@H]4CC[C@]3(C)[C@H]2OC(C)=O)CCCC1` [ROCURONIUM BROMIDE] was greater than 46 µM; that for `C[S+]([O-])(=O)C1=CC=C(C=C1)C/2=C(/C(=O)OC2)C3=CC=CC=C3` [ROFECOXIB] was greater than 46 µM.
For `O=C1CC[C@H](C(=O)N[C@@H]2C[C@H]2c2ccccc2)N1` [ROLICYPRINUM], the “IC50 of cell viability” value is greater than 46 µM.
Next, `Cn1c([N+](=O)[O-])cnc1COC(N)=O` [RONIDAZOLE]: greater than 46 µM.
Next, `CCCN(CCC)CCc1cccc2c1CC(=O)N2` [ROPINROLE]: greater than 46 µM; `CCCN1CCCC[C@H]1C(=O)Nc1c(C)cccc1C` [ROPIVACAINE HYDROCHLORIDE MONOHYDRATE]: greater than 46 µM.
Consider `CCC1OC(=O)C[C@@H](O)[C@H](C)[C@@H](OC2OC(C)CC(N(C)C)C2O)[C@@H](CC=O)C[C@@H](C)C(=O)/C=C/[C@]2(C)OC2C1C` (stereo not given in full) [ROSAMICIN], for which the “IC50 of cell viability” value is greater than 46 µM.
On to `CN(CCOc1ccc(CC2SC(=O)NC2=O)cc1)c1ccccn1` (stereo not given) [ROSIGLITAZONE], for which the “IC50 of cell viability” value was greater than 46 µM.
As to `CC(C)c1nc(N(C)[S+](C)(=O)[O-])nc(-c2ccc(F)cc2)c1/C=C/C(O)CC(O)CC(=O)O` (stereo not given) [ROSUVASTATIN], the “IC50 of cell viability” value is greater than 46 µM.
As to `CCCN(CCc1cccs1)[C@H]1CCc2c(O)cccc2C1` [ROTIGOTINE], the “IC50 of cell viability” value was greater than 46 µM.
Next, `CC(=O)OCC(=O)NCCCOc1cccc(CN2CCCCC2)c1` [ROXATIDINE ACETATE HYDROCHLORIDE]: greater than 46 µM; `NC(=O)c1cn(Cc2c(F)cccc2F)nn1` [RUFINAMIDE]: greater than 46 µM.
As for `CN1CCN(CC1)C2=C(F)C=C3C(=O)\C(=C/N4CCSC2=C34)C(O)=O` [RUFLOXACINUM], the “IC50 of cell viability” value was greater than 46 µM.
On to `CC(=O)SC[C@@H](Cc1ccccc1)C(=O)NCC(=O)OCc1ccccc1` [Racecadotril], for which the “IC50 of cell viability” value is greater than 46 µM.
Turning to `O=C(Nc1ccc(Oc2ccc(Cl)cc2)c(Cl)c1)c1cc(I)cc(I)c1O` [Rafoxanide], the “IC50 of cell viability” value is greater than 46 µM.
With `O=C(c1ccc(OCCN2CCCCC2)cc1)c1c(-c2ccc(O)cc2)sc2cc(O)ccc12` [Raloxifene hydrochloride], the “IC50 of cell viability” value is greater than 46 µM.
With `CN\1C(=O)C(=C(\N=C1C(C)(C)NC(=O)C2=NN=C(C)O2)C(=O)NCC3=CC=C(F)C=C3)/O` [Raltegravir], the “IC50 of cell viability” value is greater than 46 µM.
For the molecule `CN(CC1=CC2=C(N\C(=N/C2=O)C)C=C1)C3=CC=C(S3)C(=O)N[C@@H](CCC(O)=O)C(O)=O` [Raltitrexed], the “IC50 of cell viability” value is greater than 46 µM.
For `CCOC(=O)[C@H](CCc1ccccc1)N[C@@H](C)C(=O)N1[C@@H](C(=O)O)C[C@H]2CCC[C@@H]21` [Ramipril], the “IC50 of cell viability” value is greater than 46 µM.
Consider `CCOc1ccccc1OC(c1ccccc1)C1CNCCO1` (stereo not given) [Reboxetine mesylate], for which the “IC50 of cell viability” value was greater than 46 µM.
As to `CC(Cc1ccccc1)(NC(=O)CN)c1ccccc1` (stereo not given) [Remacemide hydrochloride], the “IC50 of cell viability” value was greater than 46 µM.
As to `CCOc1cc(CC(=O)N[C@@H](CC(C)C)c2ccccc2N2CCCCC2)ccc1C(=O)O` [Repaglinide], the “IC50 of cell viability” value is greater than 46 µM.
